One test addresses T1, human B1 receptor (Homo sapiens, UniProt P46663).
T1 construct: host or cells: CHO-K1
T1 sequence (P46663 1-353): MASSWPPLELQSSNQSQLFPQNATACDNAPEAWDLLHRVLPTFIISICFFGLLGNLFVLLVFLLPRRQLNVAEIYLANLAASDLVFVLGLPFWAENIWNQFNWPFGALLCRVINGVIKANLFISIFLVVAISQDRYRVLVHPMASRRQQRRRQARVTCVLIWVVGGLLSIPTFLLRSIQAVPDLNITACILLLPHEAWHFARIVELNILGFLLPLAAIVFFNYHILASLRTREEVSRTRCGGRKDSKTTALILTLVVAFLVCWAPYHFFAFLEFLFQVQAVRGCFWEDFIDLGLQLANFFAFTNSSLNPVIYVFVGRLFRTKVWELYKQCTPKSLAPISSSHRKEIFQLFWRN
Nature of the test: Calcium flux assay (FLIPR) with recombinant CHO-K1 cells expressing human B1 receptor. It is filed as cell-based. To be noted: absence of 0.1% BSA in assay buffer, read-out: hB1 free IC50. How it is done:
The potency to inhibit the Bradykinin B1 receptors was determined for the example compounds of this invention in a cell-based fluorescent calcium-mobilisation assay. The assay measures the ability of example compounds to inhibit Bradykinin B1 receptor agonist-induced increase of intracellular free Ca^2+ in the cell line expressing B1 receptor. Specifically, calcium indicator-loaded cells are pre-incubated in the absence or presence of different concentrations of example compounds followed by the stimulation with a selective B1 receptor agonist peptide. The change of the intracellular Ca^2+ concentration is monitored with a fluorescent plate reader FLIPR (Molecular Devices).
Calcium Flux Assays (FLIPR) with Cells Expressing Bradykinin B1 Receptor Calcium Flux Assay (FLIPR) with Recombinant Cells for Bradykinin B1 Receptor Antagonist, Either in the Presence (hB1 IC50) or Absence (hB1 free IC50) of 0.1% Bovine Serum Albumin (BSA) in Assay Buffer
CHO-K1 cell line expressing human B1 receptor was purchased from Euroscreen (Gosselies, Belgium, with reference name hB1-D1). The cells were grown in Nutrient Mixture Ham's F12 (Sigma) containing 10% Foetal bovine serum (Sigma) and 400 μg/mL G418 (Sigma), 5 μg/mL puromycin (Sigma).
For the calcium flux assay, 80% confluent cells were detached from the culture vessels with Versene (Gibco), and seeded into 384-well plates (Cell binding Surface; Corning, N.Y.; #3683) at a density of 15,000 cells per well. Cells were seeded in a volume of 50 μL in medium without antibiotics and incubated overnight in a humidified atmosphere with 5% CO2 at 37° C. […] The calcium indicator loaded cells were incubated at 37° C. for 2 hrs. Extracellular dye was then removed and each well was filled with 45 μL of assay buffer. Cell plates were kept in dark until used. Example compounds were assayed at 8 concentrations in triplicate. Serial 10-fold dilutions in 100% DMSO were made at a 100-times higher concentration than the final concentration, and then diluted 1:10 in assay buffer. 5 μL of each diluted compound was added to the well of cell plates (yielding final concentration with 1% DMSO), and incubated for 30 min at 28° C. before the addition of B1 receptor agonist on the FLIPR instrument.
Agonist plates contained the agonist Lys-(Des-Arg)-Bradykinin (Bachem, Brackley) at 3.5×EC90 in assay buffer with 1% DMSO. The addition of agonist 20 μl per well to the assay plate was carried out on the FLIPR instrument while continuously monitoring Ca^2+-dependent fluorescence at 538 nm. A peptide antagonist Lys-(Des-Arg-Leu)-Bradykinin (Bachem, Brackley) at 20 μM was used to determine the full inhibition as control.
Peak fluorescence was used to determine the response to agonist obtained at each concentration of example compound by the following equation:
% Response=100*(RFU(example compound)−RFU(control)/(RFU(DMSO)−RFU(control)
Control=full inhibition by the peptide antagonist Lys-(Des-Arg-Leu)-Bradykinin at 20 μM
The response values were plotted against the logarithm of the compound concentrations. The compounds were tested in triplicates per plate and mean values were plotted in Excel XLfit to determine IC50 values, percentage of maximal inhibition and the Hill slopes.
`O=C(Nc1ccc(-n2cc(C(F)(F)F)cn2)c(-c2nnn[nH]2)c1)C1CC1c1ccc(Cl)cc1` (racemic) [Example 46, 2-(4-Chlorophenyl)-N-{3-(1H-tetrazol-5-yl)-4-[4-(trifluoromethyl)-1H-pyrazol-1-yl]phenyl}cyclopropane-carboxamide]: the IC50 was 1180 nM.
On the same count and under the same terms, to `COc1ccc(-c2ccc(NC(=O)C3CC3c3cccc(C)c3)cc2-c2nnn[nH]2)cc1OC` (racemic) [Example 7, N-[3′,4′-dimethoxy-2-(1H-tetrazol-5-yl)biphenyl-4-yl]-2-(3-methylphenyl)cyclopro-panecarboxamide] belongs 6 nM; to `CCOc1ncc(-c2ccc(NC(=O)C3CC3c3ccc(Cl)cc3)cc2-c2nnn[nH]2)cn1` (racemic) [Example 27, 2-(4-Chlorophenyl)-N-[4-(2-ethoxypyrimidin-5-yl)-3-(1H-tetrazol-5-yl)phenyl]cyclopropane-carboxamide], 13 nM; to `O=C(Nc1ccc(-n2ccc(C(F)(F)F)n2)c(-c2nnn[nH]2)c1)C1CC1c1ccc(Cl)cc1` (racemic) [Example 47, 2-(4-Chlorophenyl)-N-{3-(1H-tetrazol-5-yl)-4-[3-(trifluoromethyl)-1H-pyrazol-1-yl]phenyl}cyclopropane-carboxamide], 1220 nM.
Still for that read-out and setting: the result for `CC(C)(C)c1cn(-c2ccc(NC(=O)C3CC3c3ccc(Cl)cc3)cc2-c2nnn[nH]2)cn1` (single isomer, unassigned) [Example 84, N-[4-(4-tert-butyl-1H-imidazol-1-yl)-3-(1H-tetrazol-5-yl)phenyl]-2-(4-chlorophenyl)cyclopropanecarboxamide] reads 4 nM; that for `O=C(Nc1ccc(-c2ccc(C(F)(F)F)nc2)c(-c2nnn[nH]2)c1)C1CC1c1ccccc1` (racemic) [Example 28, 2-Phenyl-N-{3-(1H-tetrazol-5-yl)-4-[6-(trifluoromethyl)pyridin-3-yl]phenyl}cyclopro-panecarboxamide], 509 nM.
Same read-out and setting: to `Cc1cc(-c2ccc(C(F)(F)F)nc2)c(-c2nnn[nH]2)cc1NC(=O)C1CC1C1CCCCC1` (racemic) [Example 71, 2-Cyclohexyl-N-{2-methyl-5-(1H-tetrazol-5-yl)-4-[6-(trifluoromethyl)pyridin-3-yl]phenyl}cyclopro-panecarboxamide] belongs 308 nM.

Still in this test, the particulars now being: presence of 0.1% BSA in assay buffer, read-out: hB1 IC50.
As for `COc1ccc(-c2cc(C)c(NC(=O)C3CC3C3CCCCC3)cc2-c2nnn[nH]2)cc1C` (racemic) [Example 74, 2-Cyclohexyl-N-[4′-methoxy-3′,5-dimethyl-2-(1H-tetrazol-5-yl)biphenyl-4-yl]cyclopro-panecarboxamide], the IC50 is 299 nM.
Still for that read-out and setting: to `COc1ccc(-c2ccc(NC(=O)C3CC3c3ccc(Cl)cc3)cc2-c2nnn[nH]2)cc1Cl` (racemic) [Example 39, N-[3′-chloro-4′-methoxy-2-(1H-tetrazol-5-yl)biphenyl-4-yl]-2-(4-chlorophenyl)cyclopro-panecarboxamide] belongs 1230 nM; to `CCOc1ccc(-c2cc(C)c(NC(=O)C3CC3c3cccc(C)c3)cc2-c2nnn[nH]2)cc1OC` (racemic) [Example 72, N-[4′-Ethoxy-3′-methoxy-5-methyl-2-(1H-tetrazol-5-yl)biphenyl-4-yl]-2-(3-methylphenyl)cyclopro-panecarboxamide], 38 nM.
The same measure, in the same setting: the result for `COc1ccc(-c2ccc(NC(=O)C3CC3C3CCCCC3)cc2-c2nnn[nH]2)cc1Cl` (racemic) [Example 40, N-[3′-chloro-4′-methoxy-2-(1H-tetrazol-5-yl)biphenyl-4-yl]-2-cyclohexylcyclopropane-carboxamide] reads 1030 nM.
On the same count and under the same terms, the result for `COc1ccc(-c2ccc(NC(=O)C3CC3c3cccc(C)c3)cc2-c2nnn[nH]2)cc1OC` (racemic) [Example 7, N-[3′,4′-dimethoxy-2-(1H-tetrazol-5-yl)biphenyl-4-yl]-2-(3-methylphenyl)cyclopro-panecarboxamide] reads 19 nM; that for `COc1ccc(-c2cc(F)c(NC(=O)C3CC3c3ccc(Cl)cc3)cc2-c2nnn[nH]2)cc1OC` (racemic) [Example 54, 2-(4-Chlorophenyl)-N-[5-fluoro-3′,4′-dimethoxy-2-(1H-tetrazol-5-yl)biphenyl-4-yl]cyclopro-panecarboxamide], 26 nM.
On to `CCOc1cncc(-c2ccc(NC(=O)C3CC3c3cccc(C)c3)cc2-c2nnn[nH]2)c1` (racemic) [Example 23, N-[4-(5-Ethoxypyridin-3-yl)-3-(1H-tetrazol-5-yl)phenyl]-2-(3-methylphenyl)cyclopro-panecarboxamide], for which the 50% inhibitory concentration (IC50) was determined as 303 nM.
The same measure, in the same setting: to `COc1ccc(-c2ccc(NC(=O)C3CC3c3ccc(Cl)cc3)cc2-c2nnn[nH]2)cc1OC` (racemic) [Example 9, 2-(4-chlorophenyl)-N-[3′,4′-dimethoxy-2-(1H-tetrazol-5-yl)biphenyl-4-yl]cyclo-propanecarboxamide] belongs 19 nM; to `O=C(Nc1ccc(-c2ccc(OC(F)(F)F)cc2)c(-c2nnn[nH]2)c1)C1CC1C1CCCCC1` (racemic) [Example 42, 2-cyclohexyl-N-[2-(1H-tetrazol-5-yl)-4′-(trifluoro-methoxy)biphenyl-4-yl]cyclopropanecarbox-amide], 31 nM.
`COc1cncc(-c2ccc(NC(=O)C3CC3C3CCCCC3)cc2-c2nnn[nH]2)c1` (racemic) [Example 24, 2-Cyclohexyl-N-[4-(5-methoxypyridin-3-yl)-3-(1H-tetrazol-5-yl)phenyl]cyclopro-panecarboxamide]: the IC50 was determined as 310 nM.
Still for that read-out and setting: to `COc1ccc(C2CC2C(=O)Nc2ccc(-c3ccc(OC)c(OC)c3)c(-c3nnn[nH]3)c2)cc1` (racemic) [Example 13, N-[3′,4′-dimethoxy-2-(1H-tetrazol-5-yl)biphenyl-4-yl]-2-(4-methoxyphenyl)cyclo-propanecarboxamide] belongs 1050 nM.
The same measure, in the same setting: the result for `COc1ccc(-c2c(F)cc(NC(=O)C3CC3c3cccc(C)c3)cc2-c2nnn[nH]2)cc1OC` (racemic) [Example 59, N-[2-Fluoro-3′,4′-dimethoxy-6-(1H-tetrazol-5-yl)biphenyl-4-yl]-2-(3-methylphenyl)cyclopro-panecarboxamide] reads 83 nM; that for `COc1ccc(-c2ccc(NC(=O)C3CC3c3ccc(Cl)cc3)cc2-c2nnn[nH]2)cc1C` (racemic) [Example 34, 2-(4-chlorophenyl)-N-[4′-methoxy-3′-methyl-2-(1H-tetrazol-5-yl)biphenyl-4-yl]cyclopropanecarbox-amide], 232 nM; that for `COc1ccc(-c2ccc(NC(=O)C3CC3c3cnn(C)c3)cc2-c2nnn[nH]2)cc1OC` (racemic) [Example 2, N-[3′,4′-dimethoxy-2-(1H-tetrazol-5-yl)biphenyl-4-yl]-2-(1-methyl-1H-pyrazol-4-yl)cyclopropanecarbox-amide], 2120 nM.
Regarding `COc1ccc(-c2ccc(NC(=O)C3CC3C3CCCCC3)cc2-c2nnn[nH]2)cc1C` (single isomer, unassigned) [Example 35, 2-Cyclohexyl-N-[4′-methoxy-3′-methyl-2-(1H-tetrazol-5-yl)biphenyl-4-yl]cyclopropanecarbox-amide], the IC50 turned out to be 378 nM.
For the compound `CCOc1ccc(-c2ccc(NC(=O)C3CC3c3cccc(C)c3)cc2-c2nnn[nH]2)cc1OC` (racemic) [Example 77, N-[4′-ethoxy-3′-methoxy-2-(1H-tetrazol-5-yl)biphenyl-4-yl]-2-(3-methylphenyl)cyclopro-panecarboxamide], the IC50 came out at 12 nM.
The same measure, in the same setting: the result for `COc1ccc(-c2ccc(NC(=O)C3CC3c3ccc(C)cc3)cc2-c2nnn[nH]2)cc1OC` (racemic) [Example 10, N-[3′,4′-dimethoxy-2-(1H-tetrazol-5-yl)biphenyl-4-yl]-2-(4-methylphenyl)cyclopro-panecarboxamide] reads 33 nM.
On the same count and under the same terms, to `Cc1cc(-c2ccc(C(F)(F)F)nc2)c(-c2nnn[nH]2)cc1NC(=O)C1CC1C1CCCCC1` (racemic) [Example 71, 2-Cyclohexyl-N-{2-methyl-5-(1H-tetrazol-5-yl)-4-[6-(trifluoromethyl)pyridin-3-yl]phenyl}cyclopro-panecarboxamide] belongs 263 nM.
